Consider nine compounds from publication PMC4947994 (Acta Naturae, 2016).

In series [1] the test system is HCC1937 cells. As to the kind of experiment: Cytotoxicity: Sub-G1 population by flow cytometry. The following applies: for Sub-G1 population: 72 h. In kind it is cell-based, human. The procedure: (§1) A BRCA1-deficient human breast cancer line HCC1937 (ATCC CRL-2336) was cultured in DMEM supplemented with 10% heat-inactivated fetal bovine serum, penicillin/streptomycin (100 U/ml), and pyruvate (0,11 mg/ml) at 37°C in 20% O2 humidified atmosphere. The cells were maintained in a logarithmic growth phase for all experiments.
(§2) To perform cell cycle analysis, the cells were then harvested after 72 hours, fixed with 70% EtOH (final concentration) for 60 min on ice, rinsed in PBS, and stained in a 500 •µl solution containing 50 •µg/ml propidium iodide and 25 •µg/ml RNase A for 15 min. Data were acquired by a BD FACS CantoII flow cytometer (BD Biosciences) and analyzed using the FACSDiva software. The cleavage of the fluorogenic peptide substrate […] was measured using a fluorometric assay. Upon treatment with cytotoxic agents, the cells were incubated for 48 hours, then harvested and washed with PBS. After centrifugation, they were re-suspended in PBS at a concentration of 2 × 10^6 cells/100 μl. Then, 25 μl of the suspension was added to a 96-well plate and mixed with a DEVD peptide substrate dissolved in a standard reaction buffer (100 mM HEPES, 10% sucrose, 5 mM DTT, 0.001% NP- 40, and 0.1% CHAPS, pH 7.2). Cleavage of the fluorogenic peptide substrate was monitored by AMC liberation in a VarioScan Flash multimode detector (Thermo Scientific) using 380 nm excitation and 460 nm emission wavelengths. Measurements were done in at least two independent experiments.
A general note: Flow cytometry measures light scatter and fluorescence of single cells or particles in a stream.

In a further series the test system is PARP. Also on record: method as in PMID 11149897, PMID 16870158. The note with it: cited from earlier work.
The subject of another series is PARP-1. The following applies: cited from earlier work.
The next series deals with T1, human PARP-1 (Homo sapiens, UniProt P09874).
T1 construct: made in house
T1 sequence (P09874 whole entry): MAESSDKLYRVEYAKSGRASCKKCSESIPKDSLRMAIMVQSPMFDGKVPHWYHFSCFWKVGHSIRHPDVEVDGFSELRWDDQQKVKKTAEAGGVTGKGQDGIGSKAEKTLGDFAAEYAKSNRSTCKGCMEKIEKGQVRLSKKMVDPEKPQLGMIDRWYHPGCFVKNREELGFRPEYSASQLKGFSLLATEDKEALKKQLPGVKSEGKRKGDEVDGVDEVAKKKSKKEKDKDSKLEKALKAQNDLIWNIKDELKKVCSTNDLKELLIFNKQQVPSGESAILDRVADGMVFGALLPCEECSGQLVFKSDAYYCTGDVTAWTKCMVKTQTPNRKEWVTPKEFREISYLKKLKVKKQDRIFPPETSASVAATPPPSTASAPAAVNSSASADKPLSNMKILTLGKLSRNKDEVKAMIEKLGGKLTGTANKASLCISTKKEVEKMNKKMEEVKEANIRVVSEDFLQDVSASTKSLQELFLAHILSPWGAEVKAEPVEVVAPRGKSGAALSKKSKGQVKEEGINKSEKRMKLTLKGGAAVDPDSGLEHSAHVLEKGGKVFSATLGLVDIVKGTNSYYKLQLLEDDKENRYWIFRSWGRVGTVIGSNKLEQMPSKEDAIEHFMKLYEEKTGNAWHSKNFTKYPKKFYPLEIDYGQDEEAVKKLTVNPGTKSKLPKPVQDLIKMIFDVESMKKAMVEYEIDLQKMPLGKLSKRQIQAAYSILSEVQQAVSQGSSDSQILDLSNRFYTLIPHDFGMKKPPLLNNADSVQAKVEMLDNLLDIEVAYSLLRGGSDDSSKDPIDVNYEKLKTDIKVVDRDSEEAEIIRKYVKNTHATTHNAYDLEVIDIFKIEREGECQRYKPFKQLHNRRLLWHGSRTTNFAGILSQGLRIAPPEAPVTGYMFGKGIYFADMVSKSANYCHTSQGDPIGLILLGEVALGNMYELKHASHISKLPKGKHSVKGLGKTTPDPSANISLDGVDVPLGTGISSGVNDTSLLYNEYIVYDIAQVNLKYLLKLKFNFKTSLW
The series can be described thus: biochemical. Format: biochemical. The note with it: for IC50: auto-poly(ADP-ribosyl)ation, NAD+ 0.3 mM, 37°C. How it is done: (§3) Recombinant human PARP-1 and murine PARP- 2 proteins were purified as described previously. Reaction of poly(ADP-ribosyl)ation catalyzed by PARP-1 and PARP-2 was performed at optimal conditions for each enzyme. Briefly, for PARP-1: 50 mM Tris-HCl pH 8.0, 20 mM MgCl2, 150 mM NaCl, 7 mM β-mercaptoethanol, activated DNA (2 o.u.280/ml, degree of activation 25%), 300 •µM NAD^+ (0.18 •µCi [^3H]NAD^+), 37°C. The reaction was started by adding PARP-1 up to a final concentration of 0.2 μM and was stopped after 1 min, placing the reaction mixture on paper filters (Whatman-1) soaked with a 5% solution of trichloroacetic acid. For PARP-2: 50 mM Tris-HCl pH 8.0, 40 mM NaCl, 0.1 mg/ml BSA, 8 mM MgCl2, 1 mM DTT, activated DNA (2 o.u.280/ml, degree of activation 25%), 400 •µM NAD^+ (0.4 •µCi [^3H]NAD^+), 37°C. The reaction was started by adding PARP-2 up to a final concentration of 0.2 μM and was stopped after 5 min, placing the reaction mixture on the paper filters. The filters were washed four times by the 5% trichloroacetic acid, then by 90% ethanol (to remove acid), and air-dried. The quantity of radiolabel included into the acid insoluble product was registered on a scintillation counter Tri-Carb 2800 (Perkin Elmer) in a toluene scintillator. The quantity of the radiolabeled product was determined at the initial rate period.
(§4) The PARP-inhibiting activity of the synthesized compounds was evaluated in a reaction of auto- poly(ADP-ribosyl)ation at a NAD^+ concentration of 0.3 mM for PARP-1 and 0.4 mM for PARP-2. Different concentrations of the tested compounds were added to the reaction mixture before adding the enzyme. Reaction and detection of the products were performed as described above. To determine the IC50 value (concentration of the compound required to reduce the enzyme activity by 50%), the effect of different concentrations of the inhibitor on the enzyme activity was examined. Measurements were done in at least two independent experiments. IC50 values were calculated using the Origin Pro 8.0 software by nonlinear regression analysis.

In a further series the target is T2, murine PARP-2 (Mus musculus, UniProt O88554).
T2 construct: made in house
T2 sequence (O88554 whole entry): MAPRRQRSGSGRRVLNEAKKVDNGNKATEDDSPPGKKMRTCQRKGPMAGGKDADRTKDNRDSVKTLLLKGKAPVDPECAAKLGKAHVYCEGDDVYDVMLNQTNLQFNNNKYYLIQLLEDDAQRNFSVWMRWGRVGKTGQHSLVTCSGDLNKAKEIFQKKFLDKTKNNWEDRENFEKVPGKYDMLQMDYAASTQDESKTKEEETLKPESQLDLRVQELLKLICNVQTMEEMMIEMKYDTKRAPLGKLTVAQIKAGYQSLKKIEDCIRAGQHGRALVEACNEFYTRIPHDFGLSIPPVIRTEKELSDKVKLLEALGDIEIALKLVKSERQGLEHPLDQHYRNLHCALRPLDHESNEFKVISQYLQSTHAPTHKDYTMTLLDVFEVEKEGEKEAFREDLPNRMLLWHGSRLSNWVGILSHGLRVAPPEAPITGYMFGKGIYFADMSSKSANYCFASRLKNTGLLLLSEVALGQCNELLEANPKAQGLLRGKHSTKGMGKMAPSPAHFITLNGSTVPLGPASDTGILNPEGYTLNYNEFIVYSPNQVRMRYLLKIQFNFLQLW
The series can be described thus: PARP-2 auto-poly(ADP-ribosyl)ation enzyme assay ([3H]NAD+ incorporation). Format: biochemical. The following applies: for IC50: auto-poly(ADP-ribosyl)ation, NAD+ 0.4 mM, 37°C. The procedure: as §3, §4

The subject of series [2] is HCC1937 cells. As to the kind of experiment: Caspase-3-like activity (fluorogenic peptide substrate cleavage). In kind it is cell-based, human. The note with it: 7-methylguanine alone, 48 h. How it is done:
as §1
as §2, with “Then, 25 μl of the suspension was added to a 96-well plate and mixed with a DEVD peptide substrate dissolved in a standard reaction buffer (100 mM HEPES, 10% sucrose, 5 mM DTT, 0.001% NP- 40, and 0.1% CHAPS, pH 7.2).” left out, “Measurements were done in at least two independent experiments.” left out

The mark [3] stands for this setting: replacement of 2-oxo group by amino group.

SMILES strings stand for the structures.

The compound `COc1cccc2c1C(=O)c1c(O)c3c(c(O)c1C2=O)C[C@@](O)(C(=O)CO)C[C@@H]3O[C@H]1C[C@H](N)[C@H](O)[C@H](C)O1` [doxorubicin, reference compound] gave a Sub-G1 population in the series on HCC1937 cells [1] (doxorubicin 1 μM alone) of 32%.

For `O=c1[nH]cnc2nc[nH]c12` [hypoxanthine], in the series on PARP, the PARP inhibitory effect entry is listed as “relatively weak inhibitory effect”.

On to `N.N.[Cl][Pt][Cl]` [cisplatin, reference compound], for which, in the series with HCC1937 cells [1] (cisplatin 70 μM alone), the Sub-G1 population turned out to be 34%.

For the compound `O=c1[nH]c(=O)c2nc[nH]c2[nH]1` [xanthine, reference compound], in the series on PARP-1, the PARP-1 inhibition entry was “does not show inhibition”.

The term IC50 denotes the concentration at which inhibition is half-maximal. Higher therefore signals a need for much substance. `Cn1cnc2nc[nH]c(=O)c21` [7-methylhypoxanthine, 7-Methylhypoxanthine]: the values for the IC50 on human PARP-1 and on murine PARP-2 were 780 µM and 620 µM, respectively.

As for `Cn1cnc2[nH]c(=O)[nH]c(=O)c21` [7-methylxanthine, 7-Methylxanthine], the IC50 at human PARP-1 was 800 µM; against murine PARP-2 it was 160 µM. Besides, in the series with PARP-1, the PARP-1 inhibition entry is on record as “moderate inhibitor”.

As for `Cc1c[nH]c(=O)[nH]c1=O` [thymine], the PARP inhibitory effect result in the series on PARP was “relatively weak inhibitory effect”.

For the compound `Cn1cnc2nc(N)[nH]c(=O)c21` [7-methylguanine, 7-Methylguanine], the IC50 against human PARP-1 was determined as 150 µM; against murine PARP-2 it was 50 µM. The “increase in the ability to inhibit PARP-1 compared with 7-methylxanthine” value at human PARP-1 (setting [3]) is 5 fold. In addition, the caspase-3 activation result in the series on HCC1937 cells [2] is reported as “no caspase-3 activation”. Also, the “increase in the ability to inhibit PARP-2 compared with 7-methylxanthine” value at murine PARP-2 (setting [3]) worked out at 3 fold. In addition, in the series with HCC1937 cells [1] (7-methylguanine 150 μM alone), the Sub-G1 population result is “around 2%”. In addition, the cytotoxicity result in the series with HCC1937 cells [1] (at the PARP inhibitory concentration, 7-methylguanine alone) is listed as “not cytotoxic”.

As for `CCn1cnc2[nH]c(N)nc(=O)c21` [7-ethylguanine, 7-Ethylguanine], the IC50 stood at 230 µM at human PARP-1 and 90 µM at murine PARP-2.
